Laboratory results taken from PMC9387934, “Randomized single oral dose phase 1 study of safety, tolerability, and pharmacokinetics of Iminosugar UV-4 Hydrochloride (UV-4B) in healthy subjects” (PLoS Neglected Tropical Diseases, 2022).
Like-named read-outs stand apart in the source and are kept apart here.

Test: Phase 1a single ascending dose study: UV-4 plasma concentrations and PK parameters (LC-MS/MS, noncompartmental)
Assay type: in vivo
Conditions: for Tmax / half-life / AUC(0-inf) / Cmax: both sexes, human, plasma; for AUC(0-inf): read-out: AUC(0-inf); for Cmax: read-out: Cmax
Protocol: UV-4 ((2R,3R,4R,5S)-2-(hydroxymethyl)-1-(9-methoxynonyl)piperidine-3,4,5-triol, also called N-(9’-methoxynonyl)-1-deoxynojirimycin, or MON-DNJ) hydrochloride was evaluated in a first-in-human, randomized, single-center, double-blind, placebo-controlled, parallel group, single ascending dose Phase 1a clinical trial in healthy subjects (Figs 1 and 2, ClinicalTrials.gov Identifier NCT02061358 https://clinicaltrials.gov/ct2/show/NCT02061358). The primary objective was to determine the safety and tolerability of a single-ascending oral dose of UV-4 hydrochloride (Fig 3). […] The secondary objective was to determine PK parameters describing absorption and elimination of UV-4 following a single oral dose of UV-4 hydrochloride. Eight cohorts of eight subjects each were enrolled and completed the study. In each cohort, six subjects received UV-4 as the hydrochloride; two received placebo. Subjects were screened against study eligibility criteria up to four weeks (Days -28 to -2) before admission to the clinic (Day -1). Dosing was performed on an inpatient basis. Subjects remained in clinic for 48 hours post-dosing for PK sample collection and safety assessments and were discharged from the clinic on Day 3. Subjects returned to the clinic on Day 4 for additional safety assessments, then again on Day 9 ± 1 for a final follow-up visit.
Eligible subjects were healthy males and females, age 18–45 years, with a body mass index between 18 and 30 kg/m^2 inclusive and a minimum body weight of 60 kg. Subjects were considered healthy based on medical history, physical exam, vital signs, 12-lead electrocardiogram (ECG), clinical laboratory tests (hematology, blood chemistry, urinalysis), viral serology, and drug and alcohol screening. Male and female subjects of childbearing potential were required to use adequate contraception over the course of the clinical trial. […] Only subjects who met all inclusion and none of the exclusion criteria prior to administration of the investigational product were enrolled into the study (no exemptions were granted). A total of 64 subjects were enrolled (eight cohorts of eight subjects each). In each of the eight cohorts, six subjects were randomized to receive a single dose of UV-4 (3 to 1000 mg, depending on cohort) as the hydrochloride salt, and two subjects to receive placebo. Cohort size of six active subjects was based on analysis that increasing cohort size above six in a first-in-human study gains little in the ability to observe a drug induced event, and results in observing more events that are not related to study drug. Two of the eight subjects in each cohort (sentinel subjects; one active and one placebo) received their doses at least 48 h before the remaining subjects in each cohort.
On each day of use, bulk drug substance (UV-4B for solubilization, SAI Life Sciences Ltd. Telangana, India) was removed from a single-use container, weighed at the study center, and solubilized in 20 mL sterile water for injection (SWFI) (Hospira Inc. Illinois, United States of America). Weight of solid drug substance was converted to dose of UV-4 by applying purity and salt correction factor per pharmacy manual when preparing the dosing solution. UV-4B solution was administered orally with 10 mL of taste-masking agent, OraSweet-SF (Paddock Laboratories LLC, Minneapolis, United States of America) in a total volume of 30 mL, to assist in maintaining study blinding. Placebo was SWFI (20 mL) plus OraSweet-SF (10 mL). Concentrations and doses were calculated and expressed as the active free base form, UV-4. This methodology is consistent with USP<1121>, which recommends that the strength of a drug product or preparation is expressed in terms of the active moiety. Following consumption of active or placebo solution, the dosing container was rinsed with 50 mL of tap water also consumed by subjects. […]

[1] = po, 3 mg, 3 mg single oral dose, Ar Mean

With `COCCCCCCCCCN1C[C@H](O)[C@@H](O)[C@H](O)[C@H]1CO` [UV-4, N-(9’-methoxynonyl)-1-deoxynojirimycin] the “Time over which UV-4 plasma concentrations were quantifiable” value (3 mg, 5 of 6 subjects) was 24 h, the “Time over which UV-4 plasma concentrations were quantifiable” value (3 mg, one subject) was 36 h and the Tmax (oral, 3 to 1000 mg UV-4 dose range, read-out: Median time to reach maximum plasma concentration (tmax), range across dose groups) was 0.5 to 1 h. For the same compound, the half-life (oral, Phase 1a study, 3 to 1000 mg, read-out: Mean half-life, range across dose groups) was 8.14 to 12 h, the AUC(0-inf) [1] was 95.6 ng·h/mL and the Cmax [1] was 22.4 ng/mL. The half-life (po, 3 mg, 3 mg single oral dose, Ar Mean, read-out: t1/2 (converted)) was 10.7 h, the AUC(0-inf) (po, 3 mg, 3 mg single oral dose, Arithmetic Mean) was 95.6 ng·h/mL and the Cmax (po, 3 mg, 3 mg single oral dose, Geo Mean) was 22.1 ng/mL. The half-life (po, 3 mg, 3 mg single oral dose, Geo Mean, read-out: t1/2 (converted)) was 10.3 h, the AUC(0-inf) (po, 3 mg, 3 mg single oral dose, Geometric Mean) was 94.6 ng·h/mL and the Tmax (po, 3 mg, 3 mg single oral dose, median, read-out: tmax) was 0.5 h. The Cmax (po, 10 mg, 10 mg single oral dose, Ar Mean) was 84.6 ng/mL, the half-life (po, 10 mg, 10 mg single oral dose, Ar Mean, read-out: t1/2 (converted)) was 12 h and the AUC(0-inf) (po, 10 mg, 10 mg single oral dose, Arithmetic Mean) was 431 ng·h/mL. It also gave a Cmax (po, 10 mg, 10 mg single oral dose, Geo Mean) of 82.6 ng/mL, a half-life (po, 10 mg, 10 mg single oral dose, Geo Mean, read-out: t1/2 (converted)) of 11.9 h and an AUC(0-inf) (po, 10 mg, 10 mg single oral dose, Geometric Mean) of 420 ng·h/mL. It also gave a Tmax (po, 10 mg, 10 mg single oral dose, median, read-out: tmax) of 1 h, a Cmax (po, 30 mg, 30 mg single oral dose, Ar Mean) of 292 ng/mL and a half-life (po, 30 mg, 30 mg single oral dose, Ar Mean, read-out: t1/2 (converted)) of 10 h. The AUC(0-inf) (po, 30 mg, 30 mg single oral dose, Arithmetic Mean) was 1260 ng·h/mL, the Cmax (po, 30 mg, 30 mg single oral dose, Geo Mean) was 289 ng/mL and the half-life (po, 30 mg, 30 mg single oral dose, Geo Mean, read-out: t1/2 (converted)) was 10 h. For the same compound, the AUC(0-inf) (po, 30 mg, 30 mg single oral dose, Geometric Mean) was 1260 ng·h/mL, the Tmax (po, 30 mg, 30 mg single oral dose, median, read-out: tmax) was 0.5 h and the Cmax (po, 90 mg, 90 mg single oral dose, Ar Mean) was 946 ng/mL. The half-life (po, 90 mg, 90 mg single oral dose, Ar Mean, read-out: t1/2 (converted)) was 10.4 h, the AUC(0-inf) (po, 90 mg, 90 mg single oral dose, Arithmetic Mean) was 3730 ng·h/mL and the Cmax (po, 90 mg, 90 mg single oral dose, Geo Mean) was 900 ng/mL. The half-life (po, 90 mg, 90 mg single oral dose, Geo Mean, read-out: t1/2 (converted)) was 10.2 h, the AUC(0-inf) (po, 90 mg, 90 mg single oral dose, Geometric Mean) was 3700 ng·h/mL and the Tmax (po, 90 mg, 90 mg single oral dose, median, read-out: tmax) was 0.5 h. It also gave a Cmax (po, 180 mg, 180 mg single oral dose, Ar Mean) of 2150 ng/mL, a half-life (po, 180 mg, 180 mg single oral dose, Ar Mean, read-out: t1/2 (converted)) of 8.7 h and an AUC(0-inf) (po, 180 mg, 180 mg single oral dose, Arithmetic Mean) of 7110 ng·h/mL. It also gave a Cmax (po, 180 mg, 180 mg single oral dose, Geo Mean) of 2060 ng/mL, a half-life (po, 180 mg, 180 mg single oral dose, Geo Mean, read-out: t1/2 (converted)) of 8.7 h and an AUC(0-inf) (po, 180 mg, 180 mg single oral dose, Geometric Mean) of 7090 ng·h/mL. It also gave a Tmax (po, 180 mg, 180 mg single oral dose, median, read-out: tmax) of 0.8 h, a Cmax (po, 360 mg, 360 mg single oral dose, Ar Mean) of 4570 ng/mL and a half-life (po, 360 mg, 360 mg single oral dose, Ar Mean, read-out: t1/2 (converted)) of 8.1 h. The AUC(0-inf) (po, 360 mg, 360 mg single oral dose, Arithmetic Mean) was 13800 ng·h/mL, the Cmax (po, 360 mg, 360 mg single oral dose, Geo Mean) was 4490 ng/mL and the half-life (po, 360 mg, 360 mg single oral dose, Geo Mean, read-out: t1/2 (converted)) was 8.1 h. The AUC(0-inf) (po, 360 mg, 360 mg single oral dose, Geometric Mean) was 13700 ng·h/mL, the Tmax (po, 360 mg, 360 mg single oral dose, median, read-out: tmax) was 0.5 h and the Cmax (po, 720 mg, 720 mg single oral dose, Ar Mean) was 9920 ng/mL. For the same compound, the half-life (po, 720 mg, 720 mg single oral dose, Ar Mean, read-out: t1/2 (converted)) was 8.2 h, the AUC(0-inf) (po, 720 mg, 720 mg single oral dose, Arithmetic Mean) was 32900 ng·h/mL and the Cmax (po, 720 mg, 720 mg single oral dose, Geo Mean) was 9760 ng/mL. The half-life (po, 720 mg, 720 mg single oral dose, Geo Mean, read-out: t1/2 (converted)) was 8.2 h, the AUC(0-inf) (po, 720 mg, 720 mg single oral dose, Geometric Mean) was 32800 ng·h/mL and the Tmax (po, 720 mg, 720 mg single oral dose, median, read-out: tmax) was 0.8 h. For the same compound, the Cmax (po, 1000 mg, 1000 mg single oral dose, Ar Mean) was 13100 ng/mL, the half-life (po, 1000 mg, 1000 mg single oral dose, Ar Mean, read-out: t1/2 (converted)) was 8.8 h and the AUC(0-inf) (po, 1000 mg, 1000 mg single oral dose, Arithmetic Mean) was 43100 ng·h/mL. It also gave a Cmax (po, 1000 mg, 1000 mg single oral dose, Geo Mean) of 13000 ng/mL, a half-life (po, 1000 mg, 1000 mg single oral dose, Geo Mean, read-out: t1/2 (converted)) of 8.6 h and an AUC(0-inf) (po, 1000 mg, 1000 mg single oral dose, Geometric Mean) of 42800 ng·h/mL. For the same compound, the Tmax (po, 1000 mg, 1000 mg single oral dose, median, read-out: tmax) was 1 h and the “Time over which UV-4 plasma concentrations were quantifiable” value (doses of 10 mg or higher, entire collection interval) was 48 h.
